Reference: patent US9352013B2, “Uses of bremelanotide in therapy for female sexual dysfunction” (Palatin Technologies, Inc., priority 2012, dated 2016)
“Also recorded” adds a separate entry of the source. Read-outs that look alike come from different tables or passages of the source.

Tests used:
[1] = Example 1: adverse events and discontinuations; type: in vivo, human
Method: A multi-centered, placebo-controlled, randomized, parallel group trial with fixed dose levels and designed to identify appropriate doses of bremelanotide administered by subcutaneous injection in premenopausal females with FSAD and/or HSDD, under the conditions of home use, was conducted. Subjects received a single dose of placebo (subject-blinded) in-clinic followed by 4 weeks of subject-blinded placebo treatment at home (subjects self-administered treatment as needed). Subjects who continued to qualify for the trial then received 2 single in-clinic doses of randomized treatment (double-blind; approximately one week apart), followed by 12 weeks of double-blind treatment at home (subjects self-administered treatment as needed).
Bremelanotide was well-tolerated during the trial. The most common types of treatment-emergent adverse events reported more frequently in the bremelanotide arms were facial flushing, nausea, emesis and headache. The study dosed 395 patients. A total of 26 patients discontinued from the study based on preset blood pressure change criterion spread across all arms (N=26, Placebo: 6, bremelanotide arms—0.75 mg: 4, 1.25 mg: 9, 1.75 mg: 7). A total of 19 patients discontinued from the study based on adverse events spread across all arms (N=19, Placebo: 5, bremelanotide arms—0.75 mg: 2, 1.25 mg: 4, 1.75 mg: 8). The adverse events that most commonly lead to discontinuation (other than meeting the blood pressure criterion) were flushing, nausea and emesis. Based on a safety review by an independent Data Safety Monitoring Board, no significant safety issues or concerns were identified during the study. […] Adverse events during the double-blind treatment period are shown on Table 6 below.

[2] = Example 1: pharmacokinetics after in-clinic subcutaneous dose; type: in vivo, human; settings: for AUC(0-t) / Cmax: human, sc
Method: Ambulatory blood pressure monitoring was conducted following both placebo and randomized treatment group in-clinic administrations. Three periods of ambulatory blood pressure monitoring were included, the first period was from before to 24 hours after a single, in-clinic dose of placebo (to establish a baseline); the second and third periods occurred from before to 24 hours after each of 2 single, in-clinic doses of double-blind treatment, administered within 14 days of each other. Blood samples for pharmacokinetic analysis were collected before and at 0.5, 1.0, and 2.0 hours after each in-clinic bremelanotide single-dose treatment (double-blind only), to permit analysis of concentration-response relationships.
Mean pharmacokinetic parameters were determined by bremelanotide dose and visit, including Cmax determinations (the highest ng/mL concentration at either 0.5 or 1 hour post administration) and AUC determinations at two hours and, for a subset of subjects in each group, at four hours.
The Cmax for the mean curve was calculated by averaging the concentrations at each time point (0.5, 1, 2 and 4 hours), and this is shown in FIG. 3.

With `CCCC[C@H](NC(C)=O)C(=O)N[C@H]1CC(=O)NCCCC[C@@H](C(=O)O)NC(=O)[C@H](Cc2c[nH]c3ccccc23)NC(=O)[C@H](CCCNC(=N)N)NC(=O)[C@@H](Cc2ccccc2)NC(=O)[C@H](Cc2c[nH]cn2)NC1=O` [bremelanotide, Ac-Nle-cyclo(-Asp-His-D-Phe-Arg-Trp-Lys)-OH] as the molecule, how does the “Adverse event: Upper respiratory tract infection, subjects (%)” value ([1]; 1.75 mg SC (N = 98), double-blind treatment) read?
Its value is 4 (4%).

What about the “Tolerability during the trial” value ([1]; 0.75-1.75 mg SC) of the same molecule?
Its value is “generally well tolerated”.

And the “Serious adverse events related to treatment” value ([1]; Example 1 study)?
Its value is “none were considered related; also recorded: no serious adverse events”.

And the “Cmax, Max” value ([2]; 1.75 mg SC, Visit 5)?
The value was 115 ng/mL.

What about the “Cmax, Min” value ([2]; 1.75 mg SC, Visit 5) of the same molecule?
Its value is 15 ng/mL.

What about the AUC(0-t) ([2]; blood, 0.75 mg, 0.75 mg SC, Visit 5, read-out: AUC(0-2h), Median) of the same molecule?
The AUC(0-t) was 52 ng·h/mL.

What about the AUC(0-t) ([2]; blood, 0.75 mg, 0.75 mg SC, Visit 5, read-out: AUC(0-4h), Median) of the same molecule?
The AUC(0-t) was 80 ng·h/mL.

What about the Cmax ([2]; blood, 0.75 mg, 0.75 mg SC, Visit 5, read-out: Cmax, Median) of the same molecule?
Its Cmax is 36 ng/mL.

And the AUC(0-t) ([2]; blood, 0.75 mg, 0.75 mg SC, Visit 7, read-out: AUC(0-2h), Mean)?
Its AUC(0-t) is 53 ng·h/mL.

What about the AUC(0-t) ([2]; blood, 0.75 mg, 0.75 mg SC, Visit 7, read-out: AUC(0-2h), Median) of the same molecule?
The AUC(0-t) was 52 ng·h/mL.

What about the AUC(0-t) ([2]; blood, 0.75 mg, 0.75 mg SC, Visit 7, read-out: AUC(0-4h), Mean) of the same molecule?
The AUC(0-t) was 80 ng·h/mL.

What about the AUC(0-t) ([2]; blood, 0.75 mg, 0.75 mg SC, Visit 7, read-out: AUC(0-4h), Median) of the same molecule?
The AUC(0-t) was 79 ng·h/mL.

What about the Cmax ([2]; blood, 0.75 mg, 0.75 mg SC, Visit 7, read-out: Cmax, Median) of the same molecule?
Its Cmax is 37 ng/mL.

What about the AUC(0-t) ([2]; blood, 1.25 mg, 1.25 mg SC, Visit 5, read-out: AUC(0-2h), Mean) of the same molecule?
Its AUC(0-t) is 86 ng·h/mL.

What about the AUC(0-t) ([2]; blood, 1.25 mg, 1.25 mg SC, Visit 5, read-out: AUC(0-2h), Median) of the same molecule?
The AUC(0-t) was 81 ng·h/mL.

What about the AUC(0-t) ([2]; blood, 1.25 mg, 1.25 mg SC, Visit 5, read-out: AUC(0-4h), Mean) of the same molecule?
Its AUC(0-t) is 138 ng·h/mL.

And the AUC(0-t) ([2]; blood, 1.25 mg, 1.25 mg SC, Visit 5, read-out: AUC(0-4h), Median)?
The AUC(0-t) was 136 ng·h/mL.

And the Cmax ([2]; blood, 1.25 mg, 1.25 mg SC, Visit 5, read-out: Cmax, Mean)?
Its Cmax is 60 ng/mL.

What about the Cmax ([2]; blood, 1.25 mg, 1.25 mg SC, Visit 5, read-out: Cmax, Median) of the same molecule?
The Cmax was 56 ng/mL.

What about the AUC(0-t) ([2]; blood, 1.25 mg, 1.25 mg SC, Visit 7, read-out: AUC(0-2h), Mean) of the same molecule?
Its AUC(0-t) is 84 ng·h/mL.

What about the AUC(0-t) ([2]; blood, 1.25 mg, 1.25 mg SC, Visit 7, read-out: AUC(0-2h), Median) of the same molecule?
The AUC(0-t) was 84 ng·h/mL.

What about the AUC(0-t) ([2]; blood, 1.25 mg, 1.25 mg SC, Visit 7, read-out: AUC(0-4h), Mean) of the same molecule?
Its AUC(0-t) is 142 ng·h/mL.

And the AUC(0-t) ([2]; blood, 1.25 mg, 1.25 mg SC, Visit 7, read-out: AUC(0-4h), Median)?
Its AUC(0-t) is 144 ng·h/mL.

And the Cmax ([2]; blood, 1.25 mg, 1.25 mg SC, Visit 7, read-out: Cmax, Mean)?
The Cmax was 60 ng/mL.

And the Cmax ([2]; blood, 1.25 mg, 1.25 mg SC, Visit 7, read-out: Cmax, Median)?
The Cmax was 60 ng/mL.

And the AUC(0-t) ([2]; in vivo, 0.75 mg, 0.75 mg SC, Visit 5, read-out: AUC(0-2h), Mean)?
Its AUC(0-t) is 53 ng·h/mL.

What about the AUC(0-t) ([2]; in vivo, 0.75 mg, 0.75 mg SC, Visit 5, read-out: AUC(0-4h), Mean) of the same molecule?
Its AUC(0-t) is 84 ng·h/mL.

And the Cmax ([2]; in vivo, 0.75 mg, 0.75 mg SC, Visit 5, read-out: Cmax, Mean)?
The Cmax was 37 ng/mL.

And the Cmax ([2]; in vivo, 0.75 mg, 0.75 mg SC, Visit 7, read-out: Cmax, Mean)?
The Cmax was 38 ng/mL.

And the AUC(0-t) ([2]; in vivo, 1.75 mg, 1.75 mg SC, Visit 5, read-out: AUC(0-2h), Mean)?
Its AUC(0-t) is 112 ng·h/mL.

What about the AUC(0-t) ([2]; in vivo, 1.75 mg, 1.75 mg SC, Visit 5, read-out: AUC(0-2h), Median) of the same molecule?
Its AUC(0-t) is 112 ng·h/mL.

And the AUC(0-t) ([2]; in vivo, 1.75 mg, 1.75 mg SC, Visit 5, read-out: AUC(0-4h), Mean)?
The AUC(0-t) was 178 ng·h/mL.

What about the AUC(0-t) ([2]; in vivo, 1.75 mg, 1.75 mg SC, Visit 5, read-out: AUC(0-4h), Median) of the same molecule?
The AUC(0-t) was 179 ng·h/mL.

And the Cmax ([2]; in vivo, 1.75 mg, 1.75 mg SC, Visit 5, read-out: Cmax, Mean)?
Its Cmax is 77 ng/mL.

What about the Cmax ([2]; in vivo, 1.75 mg, 1.75 mg SC, Visit 5, read-out: Cmax, Median) of the same molecule?
Its Cmax is 78 ng/mL.

What about the AUC(0-t) ([2]; in vivo, 1.75 mg, 1.75 mg SC, Visit 7, read-out: AUC(0-2h), Mean) of the same molecule?
The AUC(0-t) was 112 ng·h/mL.

What about the AUC(0-t) ([2]; in vivo, 1.75 mg, 1.75 mg SC, Visit 7, read-out: AUC(0-2h), Median) of the same molecule?
Its AUC(0-t) is 111 ng·h/mL.

What about the AUC(0-t) ([2]; in vivo, 1.75 mg, 1.75 mg SC, Visit 7, read-out: AUC(0-4h), Mean) of the same molecule?
The AUC(0-t) was 184 ng·h/mL.

And the AUC(0-t) ([2]; in vivo, 1.75 mg, 1.75 mg SC, Visit 7, read-out: AUC(0-4h), Median)?
Its AUC(0-t) is 180 ng·h/mL.

And the Cmax ([2]; in vivo, 1.75 mg, 1.75 mg SC, Visit 7, read-out: Cmax, Mean)?
The Cmax was 78 ng/mL.

What about the Cmax ([2]; in vivo, 1.75 mg, 1.75 mg SC, Visit 7, read-out: Cmax, Median) of the same molecule?
Its Cmax is 77 ng/mL.

What about the Cmax ([2]; in vivo, 1.75 mg, 1.75 mg subcutaneous dose, Example 1, read-out: Cmax, maximum) of the same molecule?
Its Cmax is 115 ng/mL.

And the Cmax ([2]; in vivo, 1.75 mg, 1.75 mg subcutaneous dose, Example 1, read-out: Cmax, mean)?
Its Cmax is 77.2 ± 19.5 ng/mL.

What about the Cmax ([2]; in vivo, 1.75 mg, 1.75 mg subcutaneous dose, Example 1, read-out: Cmax, median) of the same molecule?
Its Cmax is 78 ng/mL.

What about the Cmax ([2]; in vivo, 1.75 mg, 1.75 mg subcutaneous dose, Example 1, read-out: Cmax, minimum) of the same molecule?
The Cmax was 15 ng/mL.
